According to paper PMC11079024, “Identification of a family of species-selective complex I inhibitors as potential anthelmintics” (Nature Communications, 2024):
Several values for one entry are separate records, joined by “and”; a condition that tells them apart may be missing. Equal values may be shown once. Read-outs that look alike come from different tables or passages of the source.

Columns and labels:
[1] = biological target: C. elegans (N2) complex I (NADH:ubiquinone oxidoreductase) (Caenorhabditis elegans, UniProt P24887+Q93873+Q94360); experiment: biochemical; assay type: biochemical; details: for remaining activity at 0.125 µM / remaining activity at 0.313 µM / remaining activity at 0.625 µM / remaining activity at 1.5 µM / remaining activity at 3 µM / remaining activity at 15 µM / remaining activity at 37.5 µM / remaining activity at 75 µM: wild-type C. elegans mitochondria, read-out: percent (%) in vitro complex I activity relative to solvent control; for Percent in vitro activity, Complex I (single replicate Rep1-Rep4): 100 µM; for activity at 0.0001 µM / activity at 0.0005 µM / Complex I activity, dose-response data / activity at 0.001 µM / activity at 0.0025 µM / activity at 0.005 µM / activity at 0.013 µM / activity at 0.025 µM / activity at 0.063 µM / activity at 0.125 µM / activity at 0.313 µM / activity at 0.625 µM / activity at 1.5 µM / activity at 3 µM / activity at 15 µM / activity at 37.5 µM / activity at 75 µM: C. elegans; for activity at 0.0001 µM / activity at 0.0005 µM / activity at 0.001 µM / activity at 0.0025 µM / activity at 0.005 µM / activity at 0.013 µM / activity at 0.025 µM / activity at 0.063 µM / activity at 0.125 µM / activity at 0.313 µM / activity at 0.625 µM / activity at 1.5 µM / activity at 3 µM / activity at 15 µM / activity at 37.5 µM / activity at 75 µM: read-out: Complex I activity, dose-response data; for IC50: wild-type (N2) mitochondria, read-out: C. elegans Complex I IC50
Sequence of C. elegans (N2) complex I (NADH:ubiquinone oxidoreductase) (Q94360 17-199): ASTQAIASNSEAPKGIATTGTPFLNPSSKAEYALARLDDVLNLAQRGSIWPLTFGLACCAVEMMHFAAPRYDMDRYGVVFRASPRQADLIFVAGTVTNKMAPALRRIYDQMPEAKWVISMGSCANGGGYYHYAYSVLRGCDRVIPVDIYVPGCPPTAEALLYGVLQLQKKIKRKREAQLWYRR
Sequence of C. elegans (N2) complex I (NADH:ubiquinone oxidoreductase) (P24887 whole entry): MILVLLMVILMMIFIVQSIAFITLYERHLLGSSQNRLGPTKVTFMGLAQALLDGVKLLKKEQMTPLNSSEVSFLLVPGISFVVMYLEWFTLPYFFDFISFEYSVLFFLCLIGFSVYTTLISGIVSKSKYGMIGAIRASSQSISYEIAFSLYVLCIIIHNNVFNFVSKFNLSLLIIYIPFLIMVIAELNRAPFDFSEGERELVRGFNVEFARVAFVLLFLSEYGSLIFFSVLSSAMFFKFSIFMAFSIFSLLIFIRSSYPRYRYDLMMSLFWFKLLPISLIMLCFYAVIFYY
Sequence of C. elegans (N2) complex I (NADH:ubiquinone oxidoreductase) (Q93873 31-482): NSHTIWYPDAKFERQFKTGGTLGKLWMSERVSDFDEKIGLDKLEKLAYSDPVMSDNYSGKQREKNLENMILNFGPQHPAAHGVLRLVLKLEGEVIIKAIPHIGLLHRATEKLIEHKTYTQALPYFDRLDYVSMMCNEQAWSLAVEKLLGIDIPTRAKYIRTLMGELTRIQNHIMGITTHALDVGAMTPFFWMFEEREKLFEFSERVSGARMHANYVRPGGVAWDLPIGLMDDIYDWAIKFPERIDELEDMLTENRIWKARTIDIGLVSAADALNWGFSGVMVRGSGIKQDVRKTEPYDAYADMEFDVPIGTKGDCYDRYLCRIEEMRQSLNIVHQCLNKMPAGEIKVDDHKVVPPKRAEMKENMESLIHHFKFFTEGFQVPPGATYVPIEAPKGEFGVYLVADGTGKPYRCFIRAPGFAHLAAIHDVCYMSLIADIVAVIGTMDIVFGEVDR
In short: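 Mitochondria, 0.2 mg/mL protein, freeze-thawed three times, assayed in 25 mM KPi pH 7.5 with BSA, 80 μM NADH, 60 μM decylubiquinone, 160 μM DCIP, antimycin A and KCN. Rate from initial linear slope of A600 over 15 min. % of solvent control.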

in vitro = details: human, HEK293 Cell Viability Assay LC50, 2 days exposure
[2] = 100 µM compound, relative to solvent control, mean (SEM), read-out: % Activity Complex I
[3] = 100 μM of NPD compound, C. elegans mitochondria, individual biological replicates
[4] = 100 μM of NPD compound, C. elegans mitochondria, individual biological replicates, read-out: Percent in vitro activity, Complex I (single replicate Rep1-Rep4)
[5] = 100 μM of NPD compound, C. elegans mitochondria, mean of four biological replicates, read-out: Percent in vitro activity, Complex I (Mean)
[6] = dose 0.0001 µM, Mean of replicates
[7] = dose 0.0001 µM, individual replicates (Rep)
[8] = dose 0.0005 µM, Mean of replicates
[9] = dose 0.0005 µM, individual replicates (Rep)
[10] = dose 0.001 µM, Mean of replicates
[11] = dose 0.001 µM, individual replicates (Rep)
[12] = dose 0.0025 µM, Mean of replicates
[13] = dose 0.0025 µM, individual replicates (Rep)
[14] = dose 0.005 µM, Mean of replicates
[15] = dose 0.005 µM, individual replicates (Rep)
[16] = dose 0.013 µM, Mean of replicates
[17] = dose 0.013 µM, individual replicates (Rep)
[18] = dose 0.025 µM, Mean of replicates
[19] = dose 0.025 µM, individual replicates (Rep)
[20] = dose 0.063 µM, Mean of replicates
[21] = dose 0.063 µM, individual replicates (Rep)
[22] = dose 0.125 µM, Mean of replicates
[23] = dose 0.125 µM, individual replicates (Rep)
[24] = dose 0.313 µM, Mean of replicates
[25] = dose 0.313 µM, individual replicates (Rep)
[26] = dose 0.625 µM, Mean of replicates
[27] = dose 0.625 µM, individual replicates (Rep)
[28] = dose 1.5 µM, Mean of replicates
[29] = dose 1.5 µM, individual replicates (Rep)
[30] = dose 3 µM, individual replicates (Rep)
[31] = dose 15 µM, individual replicates (Rep)
[32] = dose 37.5 µM, Mean of replicates
[33] = dose 37.5 µM, individual replicates (Rep)
[34] = dose 75 µM, individual replicates (Rep)

COc1cc2c(cc1OC)C(c1ccc(-c3ccc(Cl)c(Cl)c3)o1)=NCC2 [NPD3577]
remaining activity at 0.125 µM ([1]; mean of replicates): 96.8%
remaining activity at 0.125 µM ([1]; single replicate): 96.7%
remaining activity at 0.313 µM ([1]; mean of replicates): 92.4%
remaining activity at 0.313 µM ([1]; single replicate): 92.5%
remaining activity at 0.625 µM ([1]; mean of replicates): 100%
remaining activity at 0.625 µM ([1]; single replicate): 100%
remaining activity at 1.5 µM ([1]; mean of replicates): 94.3%
remaining activity at 1.5 µM ([1]; single replicate): 96.2%
remaining activity at 3 µM ([1]; mean of replicates): 92.6%
remaining activity at 3 µM ([1]; single replicate): 93.9%
remaining activity at 15 µM ([1]; mean of replicates): 62.2%
remaining activity at 15 µM ([1]; single replicate): 62.5%
remaining activity at 37.5 µM ([1]; mean of replicates): 42.6%
remaining activity at 37.5 µM ([1]; single replicate): 37.8%
remaining activity at 75 µM ([1]; mean of replicates): 40.7%
remaining activity at 75 µM ([1]; single replicate): 36.7%
activity at 100 µM [1, 2]: 36.8%
Percent in vitro activity, Complex I (single replicate Rep1-Rep4) [1, 3]: 43.782% and 34.898% and 43.141%
activity at 100 µM [1, 4]: 25.5%
activity at 100 µM [1, 5]: 36.8%
activity at 0.0001 µM [1, 6]: 100%
activity at 0.0001 µM [1, 7]: 100%
activity at 0.0005 µM [1, 8]: 101%
Complex I activity, dose-response data [1, 9]: 102.944 and 101.488 and 99.964
activity at 0.0005 µM [1, 9]: 99.8%
activity at 0.001 µM [1, 10]: 107%
Complex I activity, dose-response data [1, 11]: 100.123 and 101.601 and 102.139 and 122.392
activity at 0.0025 µM [1, 12]: 108%
Complex I activity, dose-response data [1, 13]: 107.455 and 110.182 and 112.130
activity at 0.0025 µM [1, 13]: 102%
activity at 0.005 µM [1, 14]: 104%
Complex I activity, dose-response data [1, 15]: 104.715 and 108.539 and 101.437
activity at 0.005 µM [1, 15]: 100%
activity at 0.013 µM [1, 16]: 97.9%
Complex I activity, dose-response data [1, 17]: 98.157 and 103.636 and 111.482 and 78.345
activity at 0.025 µM [1, 18]: 98.1%
Complex I activity, dose-response data [1, 19]: 97.798 and 102.639 and 113.034 and 78.823
activity at 0.063 µM [1, 20]: 101%
Complex I activity, dose-response data [1, 21]: 101.240 and 102.785 and 102.967
activity at 0.063 µM [1, 21]: 97%
activity at 0.125 µM [1, 22]: 96.8%
Complex I activity, dose-response data [1, 23]: 97.708 and 99.291 and 93.354
activity at 0.125 µM [1, 23]: 96.7%
activity at 0.313 µM [1, 24]: 92.4%
Complex I activity, dose-response data [1, 25]: 97.105 and 93.945 and 86.205
activity at 0.313 µM [1, 25]: 92.5%
activity at 0.625 µM [1, 26]: 100%
activity at 0.625 µM [1, 27]: 100%
activity at 1.5 µM [1, 28]: 94.3%
Complex I activity, dose-response data [1, 29]: 94.111 and 90.424 and 96.414
activity at 1.5 µM [1, 29]: 96.2%
activity at 3 µM ([1]; dose 3 µM, Mean of replicates): 92.6%
Complex I activity, dose-response data [1, 30]: 91.612 and 93.694 and 91.331
activity at 3 µM [1, 30]: 93.9%
activity at 15 µM ([1]; dose 15 µM, Mean of replicates): 62.2%
Complex I activity, dose-response data [1, 31]: 63.065 and 59.782 and 63.349
activity at 15 µM [1, 31]: 62.5%
activity at 37.5 µM [1, 32]: 42.6%
Complex I activity, dose-response data [1, 33]: 41.693 and 41.389 and 49.686
activity at 37.5 µM [1, 33]: 37.8%
activity at 75 µM ([1]; dose 75 µM, Mean of replicates): 40.7%
Complex I activity, dose-response data [1, 34]: 47.397 and 37.818 and 40.786
activity at 75 µM [1, 34]: 36.7%
IC50 [1]: 12.1 µM
CC50 at 2 days (in vitro): 21.4 µM

COc1cc2c(cc1OC)C(/C=C/c1ccc(N(C)C)cc1)=NCC2 [NPD6303]
remaining activity at 0.125 µM ([1]; mean of replicates): 93.1%
remaining activity at 0.125 µM ([1]; single replicate): 103%
remaining activity at 0.313 µM ([1]; mean of replicates): 88%
remaining activity at 0.313 µM ([1]; single replicate): 83.6%
remaining activity at 0.625 µM ([1]; mean of replicates): 108%
remaining activity at 0.625 µM ([1]; single replicate): 106%
remaining activity at 1.5 µM ([1]; mean of replicates): 100%
remaining activity at 1.5 µM ([1]; single replicate): 100%
remaining activity at 3 µM ([1]; mean of replicates): 89.5%
remaining activity at 3 µM ([1]; single replicate): 82.5%
remaining activity at 15 µM ([1]; mean of replicates): 47.6%
remaining activity at 37.5 µM ([1]; mean of replicates): 15%
remaining activity at 75 µM ([1]; mean of replicates): 9.53%
activity at 100 µM [1, 2]: 12.7%
Percent in vitro activity, Complex I (single replicate Rep1-Rep4) [1, 3]: 10.460% and 12.057% and 12.075%
activity at 100 µM [1, 4]: 16.4%
activity at 100 µM [1, 5]: 12.7%
activity at 0.0001 µM [1, 6]: 98.7%
Complex I activity, dose-response data [1, 7]: 97.469 and 99.188
activity at 0.0001 µM [1, 7]: 101%
activity at 0.0005 µM [1, 8]: 100%
activity at 0.0005 µM [1, 9]: 100%
activity at 0.001 µM [1, 10]: 98.7%
Complex I activity, dose-response data [1, 11]: 94.995 and 103.570
activity at 0.001 µM [1, 11]: 101%
activity at 0.0025 µM [1, 12]: 103%
Complex I activity, dose-response data [1, 13]: 97.419 and 110.831
activity at 0.0025 µM [1, 13]: 106%
activity at 0.005 µM [1, 14]: 99.6%
Complex I activity, dose-response data [1, 15]: 94.468 and 104.617
activity at 0.005 µM [1, 15]: 105%
activity at 0.013 µM [1, 16]: 97.2%
Complex I activity, dose-response data [1, 17]: 91.183 and 107.524
activity at 0.013 µM [1, 17]: 98.9%
activity at 0.025 µM [1, 18]: 97.1%
Complex I activity, dose-response data [1, 19]: 90.226 and 107.714
activity at 0.025 µM [1, 19]: 100%
activity at 0.063 µM [1, 20]: 95.9%
Complex I activity, dose-response data [1, 21]: 89.273 and 101.913
activity at 0.063 µM [1, 21]: 103%
activity at 0.125 µM [1, 22]: 93.1%
Complex I activity, dose-response data [1, 23]: 87.998 and 93.858
activity at 0.125 µM [1, 23]: 103%
activity at 0.313 µM [1, 24]: 88%
Complex I activity, dose-response data [1, 25]: 86.077 and 96.329
activity at 0.313 µM [1, 25]: 83.6%
activity at 0.625 µM [1, 26]: 108%
Complex I activity, dose-response data [1, 27]: 108.371 and 107.823
activity at 0.625 µM [1, 27]: 106%
activity at 1.5 µM [1, 28]: 100%
activity at 1.5 µM [1, 29]: 100%
activity at 3 µM ([1]; dose 3 µM, Mean of replicates): 89.5%
Complex I activity, dose-response data [1, 30]: 88.910 and 97.542
activity at 3 µM [1, 30]: 82.5%
activity at 15 µM ([1]; dose 15 µM, Mean of replicates): 47.6%
Complex I activity, dose-response data [1, 31]: 33.770 and 49.973 and 56.558
activity at 37.5 µM [1, 32]: 15%
Complex I activity, dose-response data [1, 33]: 10.655 and 12.339 and 24.559
activity at 75 µM ([1]; dose 75 µM, Mean of replicates): 9.53%
Complex I activity, dose-response data [1, 34]: 11.807 and 4.396 and 17.534
IC50 [1]: 11.9 µM and 11 µM
CC50 at 2 days (in vitro): 33.4 µM
